Assay [1] deals with human iPS cells (QHJI01 line). Nature of the assay: Production of RPE cells from iPS cells with a ROCK inhibitor or caspase inhibitor in the second step; visual observation of brown-black cell population. It is filed as cell-based. As to conditions: 20 μM in second step, 2.0×10^6 cells per well, first step MEK inhibitor, day 65 or 67 of culture.
For assay [2], the system named is human iPS cells (201B7, 1231A3, Ff-I01, QHJI01 lines). Nature of the assay: Production of RPE cells including MEK inhibitor or FGF receptor inhibitor treatment step (first step); observation of brown-black cell population. The format is cell-based. As to conditions: QHJI01 and 1231A3 lines. From the text:
In one embodiment, to study the effect of the FGF receptor inhibitor in a medium free of a factor for maintaining undifferentiated state (bFGF), STEMSURE™ hPSC Medium Δ (Wako Pure Chemical Industries, Ltd.) (hereinafter STEMSURE™ hPSC Medium Δ w/o bFGF) not added with bFGF was used.
2014 Jan. 8; 4: 3594”. The medium used was STEMFIT™ AK03N medium (Ajinomoto Co., Inc.) (hereinafter AK03N medium).

The mark [3] stands for this setting: first step 6 days: 1 μM PD0325901, 1.5, 3, 6 μM PD184352, 5, 10 μM U0126, 0.3 μM TAK-733, 0.3 μM AZD-8330, day 49 and day 50.

In the case of `COC(=O)C[C@H](NC(=O)[C@H](C)NC(=O)[C@@H](NC(=O)OCc1ccccc1)C(C)C)C(=O)CF` (racemic) [Z-VAD-FMK, benzyloxycarbonyl-Val-Ala-DL-Asp(OMe)-fluoromethylketone], the “emergence of a brown-black cell population” value (“emergence” for short) in assay [1] was “could be visually confirmed”. Take `O=C(NOCC1CC1)c1ccc(F)c(F)c1Nc1ccc(I)cc1Cl` [PD184352, (2-[(2-Chloro-4-iodophenyl)amino]-N-cyclopropylmethoxy)-3,4-difluorobenzamide]: in assay [2] (setting [3]), the “emergence” value is “could be confirmed over a wide area”. Take `Cc1cc(C(=O)NOCCO)c(Nc2ccc(I)cc2F)n(C)c1=O` [AZD-8330, 2-(2-fluoro-4-iodophenylamino)-N-(2-hydroxyethoxy)-1,5-dimethyl-6-oxo-1,6-dihydropyridine-3-carboxamide]: the “emergence” value in assay [2] (setting [3]) is listed as “could be confirmed over a wide area”. In the case of `N#CC(=C(N)Sc1ccccc1N)C(C#N)=C(N)Sc1ccccc1N` [U0126, 1,4-Diamino-2,3-dicyano-1,4-bis[2-aminophenylthio]butadiene], in assay [2] (setting [3]), the “emergence” value was “could be confirmed over a wide area”. Turning to `Cc1c[nH]c(C=C2C(=O)Nc3ccccc32)c1CCC(=O)O` [SU5402, 2-[(1,2-Dihydro-2-oxo-3H-indol-3-ylidene)methyl]-4-methyl-1H-pyrrole-3-propanoic acid], the “emergence” value in assay [2] (first step 6 days: 100 nM PD173074, 5, 10, 20 μM SU5402, day 49 of culture) is “could be confirmed over a wide area”.

Source of the values: patent US11618883B2, “Method for producing retinal pigment epithelial cells” (SUMITOMO PHARMA CO., LTD., priority 2017, dated 2023).
